Data from patent US8106091B2, “Inhibitors of IKK-beta serine-threonine protein kinase” (Chroma Therapeutics Ltd., priority 2006, dated 2012).

Key:
IKBKB (IKKβ) = target: T1, IKBKB (IKKβ) (Homo sapiens, UniProt O14920); test: IKKβ enzyme assay (Z'-LYTE, Invitrogen); assay type: biochemical; settings: ATP at or close to Km; read-out: Inhibitor activity versus IKKβ
T1 construct: purchased Invitrogen (Paisley, UK)
T1 sequence (O14920 1-756): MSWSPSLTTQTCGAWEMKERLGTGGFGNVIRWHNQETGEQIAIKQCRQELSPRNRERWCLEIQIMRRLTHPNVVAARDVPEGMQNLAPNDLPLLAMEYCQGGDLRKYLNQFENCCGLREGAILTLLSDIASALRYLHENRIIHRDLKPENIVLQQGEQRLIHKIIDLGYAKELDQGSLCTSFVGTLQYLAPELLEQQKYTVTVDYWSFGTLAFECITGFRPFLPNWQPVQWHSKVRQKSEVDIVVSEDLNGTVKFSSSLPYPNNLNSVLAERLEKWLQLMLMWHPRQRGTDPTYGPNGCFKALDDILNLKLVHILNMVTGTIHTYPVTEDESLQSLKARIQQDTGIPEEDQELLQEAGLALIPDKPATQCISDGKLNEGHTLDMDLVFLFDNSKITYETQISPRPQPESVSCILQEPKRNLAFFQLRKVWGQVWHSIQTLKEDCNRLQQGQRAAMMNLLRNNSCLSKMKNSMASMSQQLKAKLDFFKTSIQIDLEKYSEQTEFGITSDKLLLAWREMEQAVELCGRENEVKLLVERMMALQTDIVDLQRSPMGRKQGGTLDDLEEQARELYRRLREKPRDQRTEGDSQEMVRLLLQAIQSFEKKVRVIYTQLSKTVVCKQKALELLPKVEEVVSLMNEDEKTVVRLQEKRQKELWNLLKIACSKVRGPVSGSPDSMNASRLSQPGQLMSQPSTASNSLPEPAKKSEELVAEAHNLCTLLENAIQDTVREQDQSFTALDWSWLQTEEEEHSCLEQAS
Method: The ability of compounds to inhibit IKKβ kinase activity was measured in an assay performed by Invitrogen (Paisley, UK). The Z′-LYTE™ biochemical assay employs a fluorescence-based, coupled-enzyme format and is based on the differential sensitivity of phosphorylated and non-phosphorylated peptides to proteolytic cleavage. The peptide substrate is labelled with two fluorophores—one at each end—that make up a FRET pair. In the primary reaction, the kinase transfers the gamma-phosphate of ATP to a single serine or threonine residue in a synthetic FRET-peptide. In the secondary reaction, a site-specific protease recognizes and cleaves non-phosphorylated FRET-peptides. Phosphorylation of FRET-peptides suppresses cleavage by the Development Reagent. Cleavage disrupts FRET between the donor (i.e., coumarin) and acceptor (i.e. fluorescein) fluorophores on the FRET-peptide, whereas uncleaved, phosphorylated FRET-peptides maintain FRET. A […] method, which calculates the ratio (the Emission Ratio) of donor emission to acceptor emission after excitation of the donor fluorophore at 400 nm, is used to quantitate reaction progress.
The final 10 μL Kinase Reaction consists of 0.9-8.0 ng IKBKB (IKKβ), 2 μM Ser/Thr 05 Peptide and ATP in 50 mM HEPES pH 7.5, 0.01% BRIJ-35, 10 mM MgCl2, 1 mM EGTA. The assay is performed at an ATP concentration at, or close to the Km. After the 60 minute Kinase Reaction incubation at room temperature, 5 μL of a 1:128 dilution of Development Reagent is added. The assay plate is incubated for a further 60 minutes at room temperature and read on a fluorescence plate reader.
Duplicate data points are generated from a ⅓ log dilution series of a stock solution of test compound in DMSO. Nine dilutions steps are made from a top concentration of 10 μM, and a ‘no compound’ blank is included. Data is collected and analysed using XLfit software from IDBS. The dose response curve is curve fitted to model number 205 (sigmoidal dose-response model). From the curve generated, the concentration giving 50% inhibition is determined and reported.

THP-1 cells = test: LPS-stimulation of THP-1 cells, TNF-α release; assay type: cell-based; settings: Homo sapiens, LPS 1 μg/ml, 6 hrs, inhibitor added 2 hrs before, read-out: Inhibitor activity versus THP-1 TNFα release
Method: LPS-Stimulation of THP-1 Cells
THP-1 cells were plated in 100 μl at a density of 4×10^4 cells/well in V-bottomed 96 well tissue culture treated plates and incubated at 37° C. in 5% CO2 for 16 hrs. 2 hrs after the addition of the inhibitor in 100 μl of tissue culture media, the cells were stimulated with LPS (E coli strain 005:B5, Sigma) at a final concentration of 1 μg/ml and incubated at 37° C. in 5% CO2 for 6 hrs. TNF-α levels were measured from cell-free supernatants by sandwich ELISA (R&D Systems #QTA00B)

Row | IC50 (IKBKB (IKKβ)) | IC50 (THP-1 cells) | Compound
1 | < 1000 nM | – | NC(=O)Nc1sc(-c2ccc(OCCC[C@H](N)C(=O)O)cc2)cc1C(N)=O [Example 27, 5-{4-[4-carbamoyl-5-(carbamoylamino)-2-thienyl]phenoxy}-L-norvaline]
2 | < 1000 nM | – | NC(=O)Nc1sc(-c2ccc(CCC[C@@H](N)C(=O)O)cc2)cc1C(N)=O [Example 36, 5-{4-[4-carbamoyl-5-(carbamoylamino)-2-thienyl]phenyl}-D-norvaline]
3 | < 1000 nM | 1000 to 5000 nM | NC(=O)Nc1sc(-c2ccc(OCCC[C@@H](N)C(=O)OC3CCCC3)cc2)cc1C(N)=O [Example 4, Cyclopentyl 5-{4-[4-carbamoyl-5-(carbamoylamino)-2-thienyl]phenoxy}-D-norvalinate]
4 | < 1000 nM | – | NC(=O)Nc1sc(-c2ccc(OCC[C@H](N)C(=O)O)c(Cl)c2)cc1C(N)=O [Example 32, O-{4-[4-carbamoyl-5-(carbamoylamino)-2-thienyl]-2-chlorophenyl}-L-homoserine]
5 | < 1000 nM | 1000 to 5000 nM | NC(=O)Nc1sc(-c2ccc(OCC[C@H](N)C(=O)OC3CCCC3)cc2)cc1C(N)=O [Example 2, Cyclopentyl O-{4-[4-carbamoyl-5-(carbamoylamino)-2-thienyl]phenyl}-L-homoserinate]
6 | < 1000 nM | – | NC(=O)Nc1cc(-c2ccc(OCC[C@H](N)C(=O)O)cc2)sc1C(N)=O [Example 46, O-{4-[5-carbamoyl-4-(carbamoylamino)-2-thienyl]phenyl}-L-homoserine]
7 | < 1000 nM | 1000 to 5000 nM | NC(=O)Nc1cc(-c2ccc(OCC[C@H](N)C(=O)OC3CCCC3)cc2)sc1C(N)=O [Example 23, Cyclopentyl O-{4-[5-carbamoyl-4-(carbamoylamino)-2-thienyl]phenyl}-L-homoserinate]
8 | < 1000 nM | – | NC(=O)Nc1sc(-c2ccc(OCCC[C@@H](N)C(=O)O)cc2)cc1C(N)=O [Example 28, 5-{4-[4-carbamoyl-5-(carbamoylamino)-2-thienyl]phenoxy}-D-norvaline]
9 | < 1000 nM | – | Cc1cc(OCC[C@H](N)C(=O)O)ccc1-c1cc(C(N)=O)c(NC(N)=O)s1 [Example 29, O-{4-[4-carbamoyl-5-(carbamoylamino)-2-thienyl]-3-methylphenyl}-L-homoserine]
10 | < 1000 nM | – | Cc1cc(-c2cc(C(N)=O)c(NC(N)=O)s2)ccc1OCC[C@H](N)C(=O)O [Example 30, O-{4-[4-carbamoyl-5-(carbamoylamino)-2-thienyl]-2-methylphenyl}-L-homoserine]

Further lines, the compound ahead of its results:

Row | Compound | IC50 (IKBKB (IKKβ)) | IC50 (THP-1 cells)
11 | NC(=O)Nc1sc(-c2ccc(OCC[C@H](N)C(=O)O)cc2Cl)cc1C(N)=O [Example 31, O-{4-[4-carbamoyl-5-(carbamoylamino)-2-thienyl]-3-chlorophenyl}-L-homoserine] | < 1000 nM | –
12 | NC(=O)Nc1sc(-c2ccc(C#CC[C@H](N)C(=O)O)cc2)cc1C(N)=O [Example 39, (2S)-2-amino-5-{4-[4-carbamoyl-5-(carbamoylamino)-2-thienyl]phenyl}pent-4-ynoic acid] | < 1000 nM | –
13 | NC(=O)Nc1sc(-c2ccc(/C=C/C[C@@H](NC3CCCCC3)C(=O)OC3CCCC3)cc2)cc1C(N)=O [Example 20, Cyclopentyl (2R,4E)-5-{4-[4-carbamoyl-5-(carbamoylamino)thiophen-2-yl]phenyl}-2-(cyclohexylamino)pent-4-enoate] | < 1000 nM | 1000 to 5000 nM
14 | NC(=O)Nc1sc(-c2ccc(C[C@H](N)C(=O)O)cc2)cc1C(N)=O [Example 40, 4-[4-carbamoyl-5-(carbamoylamino)-2-thienyl]-L-phenylalanine] | < 1000 nM | –
15 | NC(=O)Nc1sc(-c2ccc(OCC[C@@H](N)C(=O)O)cc2)cc1C(N)=O [Example 25, O-{4-[4-Carbamoyl-5-(carbamoylamino)-2-thienyl]phenyl}-D-homoserine] | < 1000 nM | –
16 | NC(=O)Nc1sc(-c2ccc(OCC[C@H](NC3CCCCC3)C(=O)O)cc2)cc1C(N)=O [Example 43, O-{4-[4-carbamoyl-5-(carbamoylamino)thiophen-2-yl]phenyl}-N-cyclohexyl-L-homoserine] | < 1000 nM | –
17 | Cc1cc(-c2cc(C(N)=O)c(NC(N)=O)s2)ccc1/C=C/C[C@H](N)C(=O)O [Example 38, (2S,4E)-2-amino-5-{4-[4-carbamoyl-5-(carbamoylamino)-2-thienyl]-2-methylphenyl}pent-4-enoic acid] | < 1000 nM | –
18 | NC(=O)Nc1sc(-c2ccc(COCC[C@H](N)C(=O)OC3CCCC3)cc2)cc1C(N)=O [Example 17, Cyclopentyl O-{4-[4-carbamoyl-5-(carbamoylamino)-2-thienyl]benzyl}-L-homoserinate] | < 1000 nM | 1000 to 5000 nM
19 | NC(=O)Nc1sc(-c2ccc(/C=C/C[C@@H](NC3CCCCC3)C(=O)O)cc2)cc1C(N)=O [Example 44, (2R,4E)-5-{4-[4-carbamoyl-5-(carbamoylamino)thiophen-2-yl]phenyl}-2-(cyclohexylamino)pent-4-enoic acid] | < 1000 nM | –
20 | NC(=O)Nc1sc(-c2ccc(/C=C/C[C@H](N)C(=O)O)cc2Cl)cc1C(N)=O [Example 37, (2S,4E)-2-amino-5-{4-[4-carbamoyl-5-(carbamoylamino)-2-thienyl]-3-chlorophenyl}pent-4-enoic acid] | < 1000 nM | –
21 | NC(=O)Nc1cc(-c2ccc(C[C@H](N)C(=O)O)cc2)sc1C(N)=O [Example 47, 4-[5-carbamoyl-4-(carbamoylamino)2-thienyl]-L-phenylalanine] | < 1000 nM | –
22 | NC(=O)Nc1sc(-c2ccc(CCC[C@H](N)C(=O)O)cc2)cc1C(N)=O [Example 35, 5-{4-[4-carbamoyl-5-(carbamoylamino)-2-thienyl]phenyl}-L-norvaline] | < 1000 nM | –
23 | NC(=O)Nc1sc(-c2ccc(/C=C/C[C@@H](N)C(=O)O)cc2)cc1C(N)=O [Example 34, (2R,4E)-2-amino-5-{4-[4-carbamoyl-5-(carbamoylamino)-2-thienyl]phenyl}pent-4-enoic acid] | < 1000 nM | –
24 | NC(=O)Nc1sc(-c2ccc(N(CC[C@H](N)C(=O)O)Cc3ccccc3)cc2)cc1C(N)=O [Example 45, (2S)-2-amino-4-(benzyl{4-[4-carbamoyl-5-(carbamoylamino)thiophen-2-yl]phenyl}amino)butanoic acid] | < 1000 nM | –
25 | NC(=O)Nc1sc(-c2ccc(/C=C\C[C@H](N)C(=O)O)cc2)cc1C(N)=O [Example 42, (2S,4Z)-2-amino-5-{4-[4-carbamoyl-5-(carbamoylamino)-2-thienyl]phenyl}pent-4-enoic acid] | < 1000 nM | –
26 | NC(=O)Nc1sc(-c2ccc(/C=C/C[C@H](N)C(=O)O)cc2)cc1C(N)=O [Example 33, (2S,4E)-2-amino-5-{4-[4-carbamoyl-5-(carbamoylamino)-2-thienyl]phenyl}pent-4-enoic acid] | < 1000 nM | –
27 | NC(=O)Nc1sc(-c2ccc(COCC[C@H](N)C(=O)O)cc2)cc1C(N)=O [Example 41, O-{4-[4-carbamoyl-5-(carbamoylamino)-2-thienyl]benzyl}-L-homoserine] | < 1000 nM | –
28 | NC(=O)Nc1sc(-c2ccc(N(CC[C@H](N)C(=O)OC3CCCC3)Cc3ccccc3)cc2)cc1C(N)=O [Example 21, Cyclopentyl (2S)-2-amino-4-(benzyl{4-[4-carbamoyl-5-(carbamoylamino)thiophen-2-yl]phenyl}amino)butanoate] | < 1000 nM | 1000 to 5000 nM
